Assay results reported in the supplement of paper PMC10307832.

Assays:
Test in all cases: relative viability (nuclei count vs DMSO), 5 days (fraction); higher = more cells survive
NCI-H1993 = tested on: NCI-H1993
In short: (§1)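 Five library-drug doses in √10 steps were combined with a fixed anchor-drug dose, or a single drug was given alone, by pin tool to lung cancer cell lines in 1536-well plates the day after seeding. Nuclei were stained and counted after 5 days. Relative viability is the nuclei count in treated wells over that in vehicle wells, taken as the median of duplicate plates.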

RERF-LC-KJ = tested on: RERF-LC-KJ
In short: as §1

BEN = tested on: BEN
In short: as §1

NCI-H1944 = tested on: NCI-H1944
In short: as §1

LXF-289 = tested on: LXF-289
In short: as §1

NCI-H727 = tested on: NCI-H727
In short: as §1

NCI-H2347 = tested on: NCI-H2347
In short: as §1

NCI-H358 = tested on: NCI-H358
In short: as §1

NCI-H2087 = tested on: NCI-H2087
In short: as §1

PC-14 = tested on: PC-14
In short: as §1

NCI-H2085 = tested on: NCI-H2085
In short: as §1

NCI-H2228 = tested on: NCI-H2228
In short: as §1

LC-2-ad = tested on: LC-2-ad
In short: as §1

HCC-78 = tested on: HCC-78
In short: as §1

EBC-1 = tested on: EBC-1
In short: as §1

EMC-BAC-2 = tested on: EMC-BAC-2
In short: as §1

HCC-366 = tested on: HCC-366
In short: as §1

NCI-H650 = tested on: NCI-H650
In short: as §1

NCI-H1563 = tested on: NCI-H1563
In short: as §1

NCI-H1666 = tested on: NCI-H1666
In short: as §1

NCI-H1915 = tested on: NCI-H1915
In short: as §1

Q: Which relative viability (NCI-H1993; first compound 0.253 µM) does the source give for `Nc1cccc2c1CN(C1CCC(=O)NC1=O)C2=O` (configuration not stated) [Lenalidomide] + C[C@]1(O)C[C@@H](c2nc(-c3ccc4ccc(-c5ccccc5)nc4c3)c3c(N)nccn32)C1 [Linsitinib] (partner 1 µM) here?
A: 0.708

Q: And the relative viability (NCI-H1993; first compound 0.8 µM)?
A: 0.706

Q: What about the relative viability (NCI-H1993; first compound 2.53 µM) of the same compound?
A: 0.73

Q: And the relative viability (NCI-H1993; first compound 8 µM)?
A: 0.708

Q: What about the relative viability (RERF-LC-KJ; first compound 0.253 µM) of the same compound?
A: 0.905

Q: What about the relative viability (RERF-LC-KJ; first compound 0.8 µM) of the same compound?
A: 0.79

Q: And the relative viability (RERF-LC-KJ; first compound 2.53 µM)?
A: 0.892

Q: What about the relative viability (RERF-LC-KJ; first compound 8 µM) of the same compound?
A: 0.943

Q: And the relative viability (BEN; first compound 0.253 µM)?
A: 1.03

Q: What about the relative viability (BEN; first compound 0.8 µM) of the same compound?
A: 0.861

Q: And the relative viability (BEN; first compound 2.53 µM)?
A: 1.09

Q: And the relative viability (BEN; first compound 8 µM)?
A: 0.781

Q: What about the relative viability (NCI-H1944; first compound 0.253 µM) of the same compound?
A: 1.15

Q: And the relative viability (NCI-H1944; first compound 0.8 µM)?
A: 1.27

Q: And the relative viability (NCI-H1944; first compound 2.53 µM)?
A: 1.24

Q: And the relative viability (NCI-H1944; first compound 8 µM)?
A: 0.948

Q: What about the relative viability (LXF-289; first compound 0.253 µM) of the same compound?
A: 0.961

Q: And the relative viability (LXF-289; first compound 0.8 µM)?
A: 0.994

Q: What about the relative viability (LXF-289; first compound 2.53 µM) of the same compound?
A: 1.01

Q: And the relative viability (LXF-289; first compound 8 µM)?
A: 1.03

Q: And the relative viability (NCI-H727; first compound 0.253 µM)?
A: 0.311

Q: What about the relative viability (NCI-H727; first compound 2.53 µM) of the same compound?
A: 0.308

Q: What about the relative viability (NCI-H727; first compound 8 µM) of the same compound?
A: 0.288

Q: And the relative viability (NCI-H2347; first compound 0.253 µM)?
A: 0.952

Q: And the relative viability (NCI-H2347; first compound 0.8 µM)?
A: 1.03

Q: And the relative viability (NCI-H2347; first compound 2.53 µM)?
A: 1

Q: And the relative viability (NCI-H2347; first compound 8 µM)?
A: 0.808

Q: What about the relative viability (NCI-H358; first compound 0.253 µM) of the same compound?
A: 0.751

Q: And the relative viability (NCI-H358; first compound 0.8 µM)?
A: 0.752

Q: And the relative viability (NCI-H358; first compound 2.53 µM)?
A: 0.773

Q: And the relative viability (NCI-H358; first compound 8 µM)?
A: 0.703

Q: And the relative viability (NCI-H2087; first compound 0.253 µM)?
A: 0.98

Q: What about the relative viability (NCI-H2087; first compound 0.8 µM) of the same compound?
A: 0.919

Q: And the relative viability (NCI-H2087; first compound 2.53 µM)?
A: 0.915

Q: What about the relative viability (NCI-H2087; first compound 8 µM) of the same compound?
A: 1.09

Q: And the relative viability (PC-14; first compound 0.253 µM)?
A: 0.925

Q: What about the relative viability (PC-14; first compound 0.8 µM) of the same compound?
A: 0.988

Q: What about the relative viability (PC-14; first compound 2.53 µM) of the same compound?
A: 0.978

Q: What about the relative viability (PC-14; first compound 8 µM) of the same compound?
A: 0.969

Q: And the relative viability (NCI-H2085; first compound 0.253 µM)?
A: 0.876

Q: And the relative viability (NCI-H2085; first compound 0.8 µM)?
A: 0.877

Q: What about the relative viability (NCI-H2085; first compound 2.53 µM) of the same compound?
A: 1.03

Q: And the relative viability (NCI-H2085; first compound 8 µM)?
A: 0.933

Q: What about the relative viability (NCI-H2228; first compound 0.253 µM) of the same compound?
A: 0.598

Q: And the relative viability (NCI-H2228; first compound 0.8 µM)?
A: 0.774

Q: And the relative viability (NCI-H2228; first compound 2.53 µM)?
A: 0.802

Q: And the relative viability (NCI-H2228; first compound 8 µM)?
A: 0.639

Q: What about the relative viability (LC-2-ad; first compound 0.253 µM) of the same compound?
A: 0.837

Q: And the relative viability (LC-2-ad; first compound 0.8 µM)?
A: 0.926

Q: What about the relative viability (LC-2-ad; first compound 2.53 µM) of the same compound?
A: 0.862

Q: What about the relative viability (LC-2-ad; first compound 8 µM) of the same compound?
A: 0.833

Q: And the relative viability (HCC-78; first compound 0.253 µM)?
A: 0.55

Q: What about the relative viability (HCC-78; first compound 0.8 µM) of the same compound?
A: 0.466

Q: And the relative viability (HCC-78; first compound 2.53 µM)?
A: 0.605

Q: And the relative viability (HCC-78; first compound 8 µM)?
A: 0.383

Q: And the relative viability (EBC-1; first compound 0.253 µM)?
A: 0.826

Q: What about the relative viability (EBC-1; first compound 0.8 µM) of the same compound?
A: 0.849

Q: And the relative viability (EBC-1; first compound 2.53 µM)?
A: 1.09

Q: And the relative viability (EBC-1; first compound 8 µM)?
A: 0.774

Q: And the relative viability (EMC-BAC-2; first compound 0.253 µM)?
A: 0.786

Q: And the relative viability (EMC-BAC-2; first compound 0.8 µM)?
A: 0.833

Q: And the relative viability (EMC-BAC-2; first compound 2.53 µM)?
A: 0.823

Q: And the relative viability (EMC-BAC-2; first compound 8 µM)?
A: 0.693

Q: And the relative viability (HCC-366; first compound 0.253 µM)?
A: 0.689

Q: What about the relative viability (HCC-366; first compound 0.8 µM) of the same compound?
A: 0.548

Q: And the relative viability (HCC-366; first compound 2.53 µM)?
A: 0.601

Q: And the relative viability (HCC-366; first compound 8 µM)?
A: 0.424

Q: What about the relative viability (NCI-H650; first compound 0.253 µM) of the same compound?
A: 0.929

Q: And the relative viability (NCI-H650; first compound 2.53 µM)?
A: 1

Q: And the relative viability (NCI-H650; first compound 8 µM)?
A: 0.727

Q: And the relative viability (NCI-H1563; first compound 0.253 µM)?
A: 1.17

Q: And the relative viability (NCI-H1563; first compound 0.8 µM)?
A: 1.16

Q: And the relative viability (NCI-H1563; first compound 2.53 µM)?
A: 1.08

Q: What about the relative viability (NCI-H1563; first compound 8 µM) of the same compound?
A: 1.01

Q: What about the relative viability (NCI-H1666; first compound 0.253 µM) of the same compound?
A: 0.921

Q: And the relative viability (NCI-H1666; first compound 0.8 µM)?
A: 0.652

Q: And the relative viability (NCI-H1666; first compound 2.53 µM)?
A: 0.853

Q: And the relative viability (NCI-H1666; first compound 8 µM)?
A: 0.833

Q: And the relative viability (NCI-H1915; first compound 0.253 µM)?
A: 1.08

Q: What about the relative viability (NCI-H1915; first compound 0.8 µM) of the same compound?
A: 1.12

Q: And the relative viability (NCI-H1915; first compound 2.53 µM)?
A: 1.06

Q: And the relative viability (NCI-H1915; first compound 8 µM)?
A: 1.11
